According to patent US11337950B2, “Biologically active cannabidiol analogs” (University of Mississippi, priority 2016, dated 2022):
“And” between values parts separate entries of the source, which are not always exact repeats. Identical values can stand only once. Like-named read-outs stand apart in the source and are kept apart here.

Assays:
[1] = In vivo eye tissue levels 90 min after topical application in Tocrisolve emulsion (Examples 12-14); design: species or system New Zealand albino rabbits
Protocol: Conscious male New Zealand albino rabbits were used. The formulations were applied topically into the rabbits eyes (50 μL containing the equivalent of 250 μg CBD) in Tocrisolve® emulsion formulations as described in Example 11. The animals were sacrificed 90 min. after drug application and the eye tissues harvested for analysis.
The same procedure was followed as shown under Example 12. Additional CBD analogs were tested in this example. In this example the tissue levels of both free CBD and intact analog were determined.
Formulations: Fifty microlitres of 0.5% w/v CBD in Tocrisolve emulsion (Dose: 0.25 mg)
Animal model: Conscious male new Zealand albino rabbits, Duration of the study: 90 min.
Aqueous humor, Vitreous humor, Retina-Choroid and Iris-Ciliary bodies analysed for parent compound as well as CBD.
Formulations: Fifty microlitres of 0.5% w/v Tocrisolve emulsion formulations (Dose: 0.25 mg)
Animal model: Conscious male new Zealand albino rabbits, Duration of the study: 90 min

[2] = type: physicochemical; details: for Concentration of CBD-Mono-Val-Mono-HS: 37° C.
Protocol: The stability CBD and CBD analogs (CBD-Mono-VHS and CBD-Di-VHS) was evaluated under acidic and alkaline conditions to simulate exposure to gastric and intestinal fluids. The procedure is outlined as follows: • 1. Stock solution of 5 mg/mL CBD, CBD-Mono-Val-Mono HS, CBD-Di-Val-Di HS was prepared. • 2. Simulated Gastric Fluid (pH 1.2)+1% (SDS) was prepared and kept in 37° C. water bath. • 3. Physiological buffer (pH 7.4)+1% SDS was prepared and kept in 37° C. water bath. • 4. 100 μL of CBD, CBD-Mono-Val-Mono HS or CBD-Di-Val-Di-HS stock in acetonitrile (equivalent to 500 μg) was spiked into separate vials containing 5 ml of either pH 1.2 and 7.4. • 5. At each time point, 100 μL of the solution was withdrawn. • 6. 900 μL acetonitrile was added to each sample. • 7. All samples centrifuged at 4° C. and 13,000 rpm. • 8. 100 μL of the supernatant was withdrawn; to this 100 μL of supernatant, 900 μL of acetonitrile was added and placed in LC vials for analysis. Tables 9, 10 and 11, and FIGS. 7a, 7b, 18, and 19 show the results.

[3] = Bioavailability of CBD-Mono-VHS from a hydrophilic suppository, PEG 1000 (Example 17); type: in vivo; design: unit not given here; details: rats, rectal 7.5 mg, Hydrophilic (PEG 1000) Suppository; for Plasma Concentration of CBD-Mono-VHS: individual animals
Protocol: CBD-Mono-Val-Mono-HS was formulated in PEG 1000 suppository base (a hydrophilic suppository base) at 75 mg/mL of melted base. The study was carried out in a cannulated rat model. Three animals were administered 100 μl. each of the semisolid formulation for a rectal dose of 7.5 mg CBD-Mono-VHS. […] The blood was centrifuged and the plasma was used for LC-MS/MS analysis.

[4] = test system: morphine place preference; test: Morphine conditioned place preference, model of addiction (Example 25); details: mice, morphine groups, IP; CBD 2.5-20.0 mg/kg, CBD-val-HS 10.0 mg/kg
[5] = Table 3, Set 1, rabbit eye, 90 min post topical 50 μL Tocrisolve emulsion, dose 0.25 mg CBD
[6] = Table 4, Set 2, rabbit, 90 min post topical 50 μL Tocrisolve emulsion, dose 250 μg
[7] = rabbit eye, 90 min post topical, 0.25 mg CBD

## C=C(C)C1CCC(C)=CC1c1c(O)cc(CCCCC)cc1OC(=O)[C@@H](NC(=O)CCC(=O)O)C(C)C (some centres unmarked) [CBD-Mono-VHS, CBD-Mono-Valinate-Mono-Hemisuccinate]
[1]; [5]
  Analog Conc., AQ Humor: 90.3 ± 13.6 ng/g of tissue
  Analog Conc., Iris Ciliary Bodies: 1034 ± 87.4 ng/g of tissue
  Analog Conc., Retina Choroid: 689 ± 127 ng/g of tissue
  CBD Conc., Iris Ciliary Bodies: 353 ± 43^ ng/g of tissue
  CBD Conc., Retina Choroid: 194 ± 31.2 ng/g of tissue
[1]; [6]
  Analog Concentration, Aqueous Humor: 98.7 ± 19.8 ng/g of tissue
  Analog Concentration, Iris Ciliary Bodies: 422 ± 197 ng/g of tissue
  Analog Concentration, Retina Choroid: 519 ± 476 ng/g of tissue
  CBD concentration, Aqueous Humor: 61.3 ± 5.9 ng/g of tissue
  CBD concentration, Iris Ciliary Bodies: 585 ± 103 ng/g of tissue
  CBD concentration, Retina Choroid: 503 ± 373 ng/g of tissue
[1]; [7]
  Ocular tissue levels of free CBD, in words (Example 13): high levels of Free CBD in the retina choroid and iris-ciliary bodies
  Ocular tissue levels of the applied substance, in words (Example 13): detected in high concentration in the aqueous humor, retina choroid and iris-ciliary bodies
[1]; rabbit eye, topical Tocrisolve emulsion
  Penetration into the ocular tissues, in words (Example 14): superior analog for penetration into the different tissues of the eye
[2]; Acid (pH 1.2), Time Point 0
  Concentration of CBD-Mono-Val-Mono-HS: 941 ng/mL
[2]; Acid (pH 1.2), Time Point 15
  Concentration of CBD-Mono-Val-Mono-HS: 1380 ng/mL
[2]; Acid (pH 1.2), Time Point 30
  Concentration of CBD-Mono-Val-Mono-HS: 1472 ng/mL
[2]; Acid (pH 1.2), Time Point 60
  Concentration of CBD-Mono-Val-Mono-HS: 1579 ng/mL
[2]; Acid (pH 1.2), Time Point 90
  Concentration of CBD-Mono-Val-Mono-HS: 1478 ng/mL
[2]; Acid (pH 1.2), Time Point 120
  Concentration of CBD-Mono-Val-Mono-HS: 1519 ng/mL
[2]; Base (pH 7.4), Time Point 0
  Concentration of CBD-Mono-Val-Mono-HS: 886 ng/mL
[2]; Base (pH 7.4), Time Point 15
  Concentration of CBD-Mono-Val-Mono-HS: 1439 ng/mL
[2]; Base (pH 7.4), Time Point 30
  Concentration of CBD-Mono-Val-Mono-HS: 1197 ng/mL
[2]; Base (pH 7.4), Time Point 60
  Concentration of CBD-Mono-Val-Mono-HS: 1791 ng/mL
[2]; Base (pH 7.4), Time Point 90
  Concentration of CBD-Mono-Val-Mono-HS: 1615 ng/mL
[2]; Base (pH 7.4), Time Point 120
  Concentration of CBD-Mono-Val-Mono-HS: 1731 ng/mL
[2]; pH 1.2, 37° C.
  Stability under acidic (gastric juice) conditions, in words: stable
[2]; pH 7.4, 37° C.
  Stability under physiologic / intestinal juice conditions, in words: stable
[3]; 0 hr
  Plasma Concentration of CBD-Mono-VHS, Average: 0.0
  Plasma Concentration of CBD-Mono-VHS: 0.0
[3]; 0.25 hr
  Plasma Concentration of CBD-Mono-VHS, Average: 13.2
  Plasma Concentration of CBD-Mono-VHS: 14.7 and 10.1 and 14.8
[3]; 0.5 hr
  Plasma Concentration of CBD-Mono-VHS, Average: 38.5
  Plasma Concentration of CBD-Mono-VHS: 44.2 and 38.4 and 32.9
[3]; 1 hr
  Plasma Concentration of CBD-Mono-VHS, Average: 89.4
  Plasma Concentration of CBD-Mono-VHS: 106.0 and 54.3 and 108.0
[3]; 2 hr
  Plasma Concentration of CBD-Mono-VHS, Average: 114.7
  Plasma Concentration of CBD-Mono-VHS: 108.0 and 123.0 and 113.0
[3]; 4 hr
  Plasma Concentration of CBD-Mono-VHS, Average: 57.2
  Plasma Concentration of CBD-Mono-VHS: 57.5 and 60.5 and 53.5
[3]; 6 hr
  Plasma Concentration of CBD-Mono-VHS, Average: 28.7
  Plasma Concentration of CBD-Mono-VHS: 18.6 and 37.4 and 30.1
[3]; 8 hr
  Plasma Concentration of CBD-Mono-VHS, Average: 24.0
  Plasma Concentration of CBD-Mono-VHS: 44.8 and 21.6 and 27.3
[3]; 24 hr
  Plasma Concentration of CBD-Mono-VHS, Average: 0.9
  Plasma Concentration of CBD-Mono-VHS: 0.0 and 2.5 and 2.6
[4]
  Effect on morphine place preference, in words: significantly (P=0.005) blocked the addictive effects of morphine
